Source: US9693997B2, “Antiviral compounds” (priority 2013, dated 2017)
Where a name gives a salt, the structure may show the parent alone.

Columns and labels:
[1] = system: pseudotyped VSV G particles (VSVpp) in Huh7-high CD81 cells; experiment: microbe, parasite or virus in culture; type: cell-based, vesicular stomatitis virus; details: Vesicular stomatitis virus, 72 h, read-out: VSVpp (EC50, μM)
[2] = system: Pseudotyped HCV GT1b particles (HCVpp), entry into Huh7-high CD81 cells; experiment: microbe, parasite or virus in culture; type: cell-based, HCV GT1b Con1 strain; details: Hepatitis C virus, GT1B, 72 h, read-out: HCVpp GT-1b (EC50, μM)

| Compound | EC50 [1] | EC50 [2] |
| --- | --- | --- |
| COc1ccc(-c2c(Cl)cc(Nc3n[nH]c(N)n3)cc2C(F)(F)F)cc1S(=O)(=O)NC(C)(C)C [Compound 216, 4′-(5-Amino-1H-[1,2,4]triazol-3-ylamino)-6′-chloro-4-methoxy-2′-trifluoromethyl-biphenyl-3-sulfonic acid tert-butylamide] | 6.48 µM | 0.004 µM |
| Nc1nc(Nc2cc(Cl)c(-c3ccc(S(=O)(=O)N[C@H]4C[C@@H](O)C4)cc3)c(C(F)(F)F)c2)n[nH]1 [Compound 174, 4′-(5-amino-1H-1,2,4-triazol-3-ylamino)-2′-chloro-N-(cis-3-hydroxycyclobutyl)-6′-(trifluoromethyl)biphenyl-4-sulfonamide] | > 10 µM | 0.038 µM |
| NCCOc1ccc(-c2c(Cl)cc(Nc3n[nH]c(N)n3)cc2C(F)(F)F)cc1 [Compound 135, N*3*-[4′-(2-Amino-ethoxy)-6-chloro-2-trifluoromethyl-biphenyl-4-yl]-1H-[1,2,4]-triazole-3,5-diamine hydrochloride] | > 10 µM | 0.077 µM |
| Nc1nc(Nc2cc(Cl)c(-c3ccc(S(=O)(=O)N4CC(F)(F)C4)cc3)c(C(F)(F)F)c2)n[nH]1 [Compound 224, N*3*-[6-Chloro-4′-(3,3-difluoro-azetidine-1-sulfonyl)-2-trifluoromethyl-biphenyl-4-yl]-1H-[1,2,4]triazole-3,5-diamine] | 4.57 µM | 0.02 µM |
| Nc1nc(Nc2cc(Cl)c(-c3ccc(OC4CCNCC4)cc3)c(Cl)c2)n[nH]1 [Compound 262, N*3*-[2,6-Dichloro-4′-(piperidin-4-yloxy)-biphenyl-4-yl]-1H-[1,2,4]triazole-3,5-diamine] | 4.87 µM | 0.05 µM |
| COc1ccc(-c2c(Cl)cc(Nc3n[nH]c(N)n3)cc2C(F)(F)F)cc1S(=O)(=O)NC1CCNCC1 [Compound 204, 4′-(5-amino-1H-1,2,4-triazol-3-ylamino)-2′-chloro-4-methoxy-N-(piperidin-4-yl)-6′-(trifluoromethyl)biphenyl-3-sulfonamide hydrochloride] | > 10 µM | 0.011 µM |
| CNC(=O)c1ccc(-c2c(Cl)cc(Nc3n[nH]c(N)n3)cc2C(F)(F)F)cc1 [Compound 189, 4′-(5-amino-1H-1,2,4-triazol-3-ylamino)-2′-chloro-N-methyl-6′-(trifluoromethyl)biphenyl-4-carboxamide] | 36.8 µM | 0.08 µM |
| CC(C)(C)OC(=O)N1CC(S(=O)(=O)c2ccc(-c3c(Cl)cc(Nc4n[nH]c(N)n4)cc3C(F)(F)F)cc2)C1 [Compound 59, 3-[4′-(5-Amino-1H-[1,2,4]triazol-3-ylamino)-6′-chloro-2′-trifluoromethyl-biphenyl-4-sulfonyl]-azetidine-1-carboxylic acid tert-butyl ester] | 5.78 µM | 0.008 µM |
| Nc1nc(Nc2cc(Cl)c(-c3ccc(NC(=O)C4CCC(F)(F)CC4)cc3)c(Cl)c2)n[nH]1 [Compound 250, 4,4-Difluorocyclohexanecarboxylic acid [4′-(5-amino-1H-[1,2,4]triazol-3-ylamino)-2′,6′-dichloro-biphenyl-4-yl]-amide] | 14 µM | 0.013 µM |
| Nc1nc(Nc2cc(Cl)c(-c3ccc(S(=O)(=O)N4CCOCC4)cc3)c(C(F)(F)F)c2)n[nH]1 [Compound 36, N*3*-[2-Chloro-4′-(morpholine-4-sulfonyl)-6-trifluoromethyl-biphenyl-4-yl]-1H-[1,2,4]triazole-3,5-diamine] | 14.2 µM | 0.096 µM |
| Nc1n[nH]c(Nc2cc(F)c(-c3ccc4ccccc4c3)c(C(F)(F)F)c2)n1 [Compound 249, N^5-(3-Fluoro-4-naphthalen-2-yl-5-trifluoromethylphenyl)-1H-[1,2,4]-triazole-3,5-diamine] | 17.2 µM | 0.991 µM |
| N#Cc1ccc(-c2c(F)cc(Nc3nc(N)n[nH]3)cc2F)cc1 [Compound 87] | > 10 µM | 0.696 µM |
| Nc1nc(Nc2cc(Cl)c(-c3ccc(S(=O)(=O)N4CC5(COC5)C4)cc3)c(C(F)(F)F)c2)n[nH]1 [Compound 69, N*3*-[6-Chloro-4′-(2-oxa-6-aza-spiro[3.3]heptane-6-sulfonyl)-2-trifluoromethyl-biphenyl-4-yl]-1H-[1,2,4]triazole-3,5-diamine] | > 10 µM | 0.033 µM |
| Nc1nc(Nc2cc(Cl)c(-c3ccc(C(=O)NCCO)c(F)c3)c(C(F)(F)F)c2)n[nH]1 [Compound 293, 4′-(5-amino-1H-1,2,4-triazol-3-ylamino)-2′-chloro-3-fluoro-N-(2-hydroxyethyl)-6′-(trifluoromethyl)biphenyl-4-carboxamide] | 15.7 µM | 0.139 µM |
| Nc1nc(Nc2cc(Cl)c(-c3ccc(S(=O)(=O)N4CC(F)C4)cc3)c(C(F)(F)F)c2)n[nH]1 [Compound 233, N*3*-[6-Chloro-4′-(3-fluoro-azetidine-1-sulfonyl)-2-trifluoromethyl-biphenyl-4-yl]-1H-[1,2,4]triazole-3,5-diamine] | > 10 µM | 0.051 µM |
| CC(C)CS(=O)(=O)c1ccc(-c2c(Cl)cc(Nc3n[nH]c(N)n3)cc2C(F)(F)F)cc1 [Compound 65, N*3*-[6-Chloro-4′-(2-methyl-propane-1-sulfonyl)-2-trifluoromethyl-biphenyl-4-yl]-1H-[1,2,4]triazole-3,5-diamine] | > 10 µM | 0.026 µM |
| CC1(O)CN(S(=O)(=O)c2ccc(-c3c(Cl)cc(Nc4n[nH]c(N)n4)cc3C(F)(F)F)cc2)C1 [Compound 63, 1-[4′-(5-Amino-1H-[1,2,4]triazol-3-ylamino)-6′-chloro-2′-trifluoromethyl-biphenyl-4-sulfonyl]-3-methyl-azetidin-3-ol] | 3.86 µM | 0.018 µM |
| CC(C)C(=O)Nc1cccc(-c2c(Cl)cc(Nc3n[nH]c(N)n3)cc2Cl)c1 [Compound 252, N-[4′-(5-amino-1H-[1,2,4]triazol-3-ylamino)-2′,6′-dichloro-biphenyl-3-yl]-isobutyramide] | > 10 µM | 0.067 µM |
| CC(C)S(=O)(=O)c1ccc(-c2c(F)cc(Nc3nc(N)n[nH]3)cc2C(F)(F)F)cc1 [Compound 71, N^5-[6-Fluoro-4′-(propane-2-sulfonyl)-2-trifluoromethyl-biphenyl-4-yl]-1H-[1,2,4]-triazole-3,5-diamine] | > 10 µM | 0.153 µM |
| CN(C)C(=O)c1ccc(-c2c(F)cc(Nc3nc(N)n[nH]3)cc2C(F)(F)F)cc1 [Compound 85, 4′-(5-Amino-2H-[1,2,4]-triazol-3-ylamino)-6′-fluoro-2′-trifluoromethyl-biphenyl-4-carboxylic acid dimethylamide] | > 10 µM | 0.568 µM |
| Nc1n[nH]c(Nc2cc(Cl)c(-c3ccc(OC4CCCNC4)cc3)c(Cl)c2)n1 (stereo not drawn) [Compound 259] | 4.27 µM | 0.089 µM |
| COc1ccc(-c2c(Cl)cc(Nc3n[nH]c(N)n3)cc2C(F)(F)F)cc1S(=O)(=O)NCCO [Compound 175, 4′-(5-amino-1H-1,2,4-triazol-3-ylamino)-2′-chloro-N-(2-hydroxyethyl)-4-methoxy-6′-(trifluoromethyl)biphenyl-3-sulfonamide] | > 10 µM | 0.018 µM |
| Nc1nc(Nc2cc(Cl)c(-c3ccc(S(=O)(=O)CCO)cc3)c(C(F)(F)F)c2)n[nH]1 [Compound 162, 2-[4′-(5-Amino-1H-[1,2,4]triazol-3-ylamino)-2′-chloro-6′-trifluoromethyl-biphenyl-4-sulfonyl]-ethanol] | > 10 µM | 0.126 µM |
| CNS(=O)(=O)c1cccc(-c2c(F)cc(Nc3nc(N)n[nH]3)cc2C(F)(F)F)c1 [Compound 81, 4′-(5-Amino-2H-[1,2,4]-triazol-3-ylamino)-6′-fluoro-2′-trifluoromethyl-biphenyl-3-sulfonic acid methylamide] | 34.9 µM | 0.549 µM |
| Nc1nc(Nc2cc(Cl)c(-c3ccc(S(=O)(=O)NC4CC4)cc3)c(C(F)(F)F)c2)n[nH]1 [Compound 169, 4′-(5-amino-1H-1,2,4-triazol-3-ylamino)-2′-chloro-N-cyclopropyl-6′-(trifluoromethyl)biphenyl-4-sulfonamide] | 3.55 µM | 0.011 µM |
| CN(CCOc1ccc(-c2c(Cl)cc(Nc3n[nH]c(N)n3)cc2Cl)cc1)C(=O)OC(C)(C)C [Compound 261, {2-[4′-(5-Amino-1H-[1,2,4]triazol-3-ylamino)-2′,6′-dichloro-biphenyl-4-yloxy]-ethyl}-methyl-carbamic acid tert-butyl ester] | 4.26 µM | 0.033 µM |
| CN(C(C)(C)C)S(=O)(=O)c1cccc(-c2c(Cl)cc(Nc3n[nH]c(N)n3)cc2C(F)(F)F)c1 [Compound 196, 4′-(5-amino-1H-1,2,4-triazol-3-ylamino)-N-tert-butyl-2′-chloro-N-methyl-6′-(trifluoromethyl)biphenyl-3-sulfonamide] | > 10 µM | 0.126 µM |
| Nc1nc(Nc2cc(Cl)c(-c3ccc(OC4CCCNC4)cc3)c(C(F)(F)F)c2)n[nH]1 (stereo not drawn) [Compound 130, N*3*-[6-Chloro-4′-(piperidin-3-yloxy)-2-trifluoromethyl-biphenyl-4-yl]-1H-[1,2,4]triazole-3,5-diamine hydrochloride] | 8.67 µM | 0.055 µM |
| CC(C)(C)CCN1CCCC(Oc2ccc(-c3c(Cl)cc(Nc4n[nH]c(N)n4)cc3C(F)(F)F)cc2)C1 (stereo not drawn) [Compound 131, N*3*-{6-Chloro-4′-[1-(3,3-dimethyl-butyl)-piperidin-3-yloxy]-2-trifluoromethyl-biphenyl-4-yl}-1H-[1,2,4]triazole-3,5-diamine hydrochloride] | 7.02 µM | 0.095 µM |
| Nc1nc(Nc2cc(Cl)c(-c3ccc(OCCN4CCOCC4)cc3)c(Cl)c2)n[nH]1 [Compound 281, N*3*-[2,6-Dichloro-4′-(2-morpholin-4-yl-ethoxy)-biphenyl-4-yl]-1H-[1,2,4]triazole-3,5-diamine] | 23.4 µM | 0.244 µM |
